Measurements reported in PubChem BioAssay (NCI).
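48-hour exposure; five concentrations; linearly interpolated endpoints. Here, GI50 denotes the concentration required for 50% inhibition of growth. TGI: concentration producing complete growth inhibition.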

Experiments:
Assay in all cases: NCI anticancer screen, dose series, 48 h
786-0 renal = test system: 786-0 renal
A498 renal = test system: A498 renal
A549 NSCLC = test system: A549 NSCLC
ACHN renal = test system: ACHN renal
BT-549 breast = test system: BT-549 breast
CAKI-1 renal = test system: CAKI-1 renal
CCRF-CEM leukemia = test system: CCRF-CEM leukemia
COLO 205 colon = test system: COLO 205 colon
DU-145 prostate = test system: DU-145 prostate
EKVX NSCLC = test system: EKVX NSCLC
HCC-2998 colon = test system: HCC-2998 colon
HCT-116 colon = test system: HCT-116 colon
HCT-15 colon = test system: HCT-15 colon
HL-60(TB) leukemia = test system: HL-60(TB) leukemia
HOP-62 NSCLC = test system: HOP-62 NSCLC
HOP-92 NSCLC = test system: HOP-92 NSCLC
HT29 colon = test system: HT29 colon
IGROV1 ovarian = test system: IGROV1 ovarian
K-562 leukemia = test system: K-562 leukemia
KM12 colon = test system: KM12 colon
M14 melanoma = test system: M14 melanoma
MALME-3M melanoma = test system: MALME-3M melanoma
MCF7 breast = test system: MCF7 breast
MDA-MB-435 = test system: MDA-MB-435
MDA-MB-468 breast = test system: MDA-MB-468 breast
MOLT-4 leukemia = test system: MOLT-4 leukemia
NCI-H226 lung = test system: NCI-H226 lung
NCI-H23 lung = test system: NCI-H23 lung
NCI-H460 lung = test system: NCI-H460 lung
NCI-H522 lung = test system: NCI-H522 lung
NCI/ADR-RES ovarian = test system: NCI/ADR-RES ovarian
OVCAR-3 ovarian = test system: OVCAR-3 ovarian
OVCAR-4 ovarian = test system: OVCAR-4 ovarian
OVCAR-5 ovarian = test system: OVCAR-5 ovarian
OVCAR-8 ovarian = test system: OVCAR-8 ovarian
PC-3 prostate = test system: PC-3 prostate
RPMI-8226 leukemia = test system: RPMI-8226 leukemia
RXF 393 renal = test system: RXF 393 renal
SF-268 CNS = test system: SF-268 CNS
SF-295 CNS = test system: SF-295 CNS
SF-539 CNS = test system: SF-539 CNS
SK-MEL-2 melanoma = test system: SK-MEL-2 melanoma
SK-MEL-28 melanoma = test system: SK-MEL-28 melanoma
SK-MEL-5 melanoma = test system: SK-MEL-5 melanoma
SK-OV-3 ovarian = test system: SK-OV-3 ovarian
SN12C renal = test system: SN12C renal
SNB-19 CNS = test system: SNB-19 CNS
SNB-75 CNS = test system: SNB-75 CNS
SR leukemia = test system: SR leukemia
T-47D breast = test system: T-47D breast
TK-10 renal = test system: TK-10 renal
U251 CNS = test system: U251 CNS
UACC-257 melanoma = test system: UACC-257 melanoma
UACC-62 melanoma = test system: UACC-62 melanoma
UO-31 renal = test system: UO-31 renal

Cn1cc(-c2cc3nc(-c4cn(C)c5ncc(Br)cc45)cc(N)n3n2)c2ccccc21
GI50 (786-0 renal): 13.4 µM
TGI (786-0 renal): 33.3 µM
GI50 (A498 renal): 8.84 µM
TGI (A498 renal): 23.7 µM
GI50 (A549 NSCLC): 9.25 µM
TGI (A549 NSCLC): > 100 µM
GI50 (ACHN renal): 13.5 µM
TGI (ACHN renal): 45.6 µM
GI50 (BT-549 breast): 19.5 µM
TGI (BT-549 breast): 47.8 µM
GI50 (CAKI-1 renal): 12.7 µM
TGI (CAKI-1 renal): 48.1 µM
GI50 (CCRF-CEM leukemia): 3.52 µM
TGI (CCRF-CEM leukemia): > 100 µM
GI50 (COLO 205 colon): 16.8 µM
TGI (COLO 205 colon): 33.8 µM
GI50 (DU-145 prostate): 21.4 µM
TGI (DU-145 prostate): > 100 µM
GI50 (EKVX NSCLC): 10.1 µM
TGI (EKVX NSCLC): 27.1 µM
GI50 (HCC-2998 colon): 3.74 µM
TGI (HCC-2998 colon): 13.9 µM
GI50 (HCT-116 colon): 7.98 µM
TGI (HCT-116 colon): 27.6 µM
GI50 (HCT-15 colon): 2.53 µM
TGI (HCT-15 colon): 6.94 µM
GI50 (HL-60(TB) leukemia): 3.53 µM
TGI (HL-60(TB) leukemia): 32.6 µM
GI50 (HOP-62 NSCLC): 14.8 µM
TGI (HOP-62 NSCLC): 46.5 µM
GI50 (HOP-92 NSCLC): 4.97 µM
TGI (HOP-92 NSCLC): 25.1 µM
GI50 (HT29 colon): 5.65 µM
TGI (HT29 colon): 20.4 µM
GI50 (IGROV1 ovarian): 11.7 µM
TGI (IGROV1 ovarian): 32.6 µM
GI50 (K-562 leukemia): 2.94 µM
TGI (K-562 leukemia): > 100 µM
GI50 (KM12 colon): 6.04 µM
TGI (KM12 colon): 26.7 µM
GI50 (M14 melanoma): 15.3 µM
TGI (M14 melanoma): 38.1 µM
GI50 (MALME-3M melanoma): 16.8 µM
TGI (MALME-3M melanoma): 32.7 µM
GI50 (MCF7 breast): 5.31 µM
TGI (MCF7 breast): 27.3 µM
GI50 (MDA-MB-435): 16.4 µM
TGI (MDA-MB-435): 34.1 µM
GI50 (MDA-MB-468 breast): 3.71 µM
TGI (MDA-MB-468 breast): 15.6 µM
GI50 (MOLT-4 leukemia): 3.52 µM
TGI (MOLT-4 leukemia): 30.9 µM
GI50 (NCI-H226 lung): 15.1 µM
TGI (NCI-H226 lung): 62.7 µM
GI50 (NCI-H23 lung): 15.7 µM
TGI (NCI-H23 lung): 41.3 µM
GI50 (NCI-H460 lung): 7.78 µM
TGI (NCI-H460 lung): 28.1 µM
GI50 (NCI-H522 lung): 12.8 µM
TGI (NCI-H522 lung): 32.7 µM
GI50 (NCI/ADR-RES ovarian): 17.4 µM
TGI (NCI/ADR-RES ovarian): 76.1 µM
GI50 (OVCAR-3 ovarian): 13.5 µM
TGI (OVCAR-3 ovarian): 28.5 µM
GI50 (OVCAR-4 ovarian): 17.1 µM
TGI (OVCAR-4 ovarian): 59.7 µM
GI50 (OVCAR-5 ovarian): 14.5 µM
TGI (OVCAR-5 ovarian): 35.1 µM
GI50 (OVCAR-8 ovarian): 21.8 µM
TGI (OVCAR-8 ovarian): 85.9 µM
GI50 (PC-3 prostate): 6.58 µM
TGI (PC-3 prostate): > 100 µM
GI50 (RPMI-8226 leukemia): 13.6 µM
TGI (RPMI-8226 leukemia): > 100 µM
GI50 (RXF 393 renal): 6.13 µM
TGI (RXF 393 renal): 19.3 µM
GI50 (SF-268 CNS): 13.1 µM
TGI (SF-268 CNS): 89.6 µM
GI50 (SF-295 CNS): 13.5 µM
TGI (SF-295 CNS): 31.1 µM
GI50 (SF-539 CNS): 14.1 µM
TGI (SF-539 CNS): 28.7 µM
GI50 (SK-MEL-2 melanoma): 11.2 µM
TGI (SK-MEL-2 melanoma): 26.7 µM
GI50 (SK-MEL-28 melanoma): 15.2 µM
TGI (SK-MEL-28 melanoma): 29.1 µM
GI50 (SK-MEL-5 melanoma): 15.1 µM
TGI (SK-MEL-5 melanoma): 28.4 µM
GI50 (SK-OV-3 ovarian): 20.4 µM
TGI (SK-OV-3 ovarian): 59.6 µM
GI50 (SN12C renal): 12.8 µM
TGI (SN12C renal): 27.9 µM
GI50 (SNB-19 CNS): 17.8 µM
TGI (SNB-19 CNS): 41.9 µM
GI50 (SNB-75 CNS): 11.9 µM
TGI (SNB-75 CNS): 58.2 µM
GI50 (SR leukemia): 2.46 µM
TGI (SR leukemia): > 100 µM
GI50 (T-47D breast): 7.38 µM
TGI (T-47D breast): 30.4 µM
GI50 (TK-10 renal): 13.8 µM
TGI (TK-10 renal): 44.9 µM
GI50 (U251 CNS): 5.65 µM
TGI (U251 CNS): 27.4 µM
GI50 (UACC-257 melanoma): 14 µM
TGI (UACC-257 melanoma): 30.4 µM
GI50 (UACC-62 melanoma): 11.5 µM
TGI (UACC-62 melanoma): 24.8 µM
GI50 (UO-31 renal): 13.1 µM
TGI (UO-31 renal): 45.8 µM
